Assay results taken from patent US20250368625A1, “PIPERAZINES” (Grünenthal GmbH, priority 2024, published 2025).

Target: T1, human SSTR4 (Homo sapiens, UniProt P31391)
T1 construct: expressed in transfected cells; host or cells: CHO-K1
Test: hSSTR4 cAMP assay (cAMP accumulation, LANCE Ultra cAMP kit, CHO-K1 human SSTR4 Gi cell line)
Format: cell-based
Settings: functional agonism, forskolin 10 μM stimulated CHO-K1 human SSTR4 Gi cells, 30 min at 25° C., at least duplicate, averaged; read-out: hSSTR4 EC50
Outline: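 CHO-K1 cells expressing human SSTR4 (Gi), pre-cultured 18-20 h or thawed and used directly, stimulated with 10 μM forskolin plus test agonist in concentration series, 30 min at 25° C. Lysate cAMP read by TR-FRET (Eu-cAMP tracer/ULight-anti-cAMP, 1 h, 25° C). Normalized to forskolin-only and forskolin+100 nM SST14 controls, 4-parameter fit; ≥duplicate, averaged.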

T1 sequence (P31391 whole entry): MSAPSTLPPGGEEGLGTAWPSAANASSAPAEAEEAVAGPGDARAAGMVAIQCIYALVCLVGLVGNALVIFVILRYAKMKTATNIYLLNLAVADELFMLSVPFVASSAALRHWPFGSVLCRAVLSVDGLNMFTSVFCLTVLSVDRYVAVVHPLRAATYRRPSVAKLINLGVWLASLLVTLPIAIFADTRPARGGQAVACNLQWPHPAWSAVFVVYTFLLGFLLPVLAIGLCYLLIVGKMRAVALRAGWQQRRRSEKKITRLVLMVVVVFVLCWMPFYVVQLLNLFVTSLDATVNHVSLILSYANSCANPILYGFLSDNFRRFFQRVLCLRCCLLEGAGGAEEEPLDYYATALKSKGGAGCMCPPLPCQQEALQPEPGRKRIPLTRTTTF

SMILES	EC50
Cc1cccn2c(C(C)(C)NC(=O)[C@@H]3CN(C(=O)c4ccn(C)n4)CCN3)ncc12 [SC-084, (S)-4-(1-methyl-1H-pyrazole-3-carbonyl)-N-(2-(8-methylimidazo[1,5-a]pyridin-3-yl)propan-2-yl)piperazine-2-carboxamide]	> 10000 nM
Cc1cccn2c(C(C)(C)NC(=O)[C@@H]3CNCCN3Cc3ccccc3)ncc12 [SC-085, (S)-1-benzyl-N-(2-(8-methylimidazo[1,5-a]pyridin-3-yl)propan-2-yl)piperazine-2-carboxamide]	0.11 nM
Cc1cccn2c(C(C)(C)NC(=O)[C@@H]3CNCCN3CC3CCOCC3)ncc12 [SC-086, (S)-N-(2-(8-methylimidazo[1,5-a]pyridin-3-yl)propan-2-yl)-1-((tetrahydro-2H-pyran-4-yl)methyl)piperazine-2-carboxamide]	0.16 nM
Cc1ccc(CN2CCNC[C@H]2C(=O)NC(C)(C)c2ncc3c(C)cccn23)cn1 [SC-088, (S)-N-(2-(8-methylimidazo[1,5-a]pyridin-3-yl)propan-2-yl)-1-((6-methylpyridin-3-yl)methyl)piperazine-2-carboxamide]	0.79 nM
Cc1cccn2c(C(C)(C)NC(=O)[C@@H]3CNCCN3CC3CC(F)(F)C3)ncc12 [SC-089, (S)-1-((3,3-difluorocyclobutyl)methyl)-N-(2-(8-methylimidazo[1,5-a]pyridin-3-yl)propan-2-yl)piperazine-2-carboxamide]	0.55 nM
Cc1cccn2c(C(C)(C)NC(=O)[C@@H]3CNCCN3Cc3cnn(C)c3)ncc12 [SC-090, (S)-1-((1-methyl-1H-pyrazol-4-yl)methyl)-N-(2-(8-methylimidazo[1,5-a]pyridin-3-yl)propan-2-yl)piperazine-2-carboxamide]	1.8 nM
Cc1cc(CN2CCNC[C@H]2C(=O)NC(C)(C)c2ncc3c(C)cccn23)ccn1 [SC-091, (S)-N-(2-(8-methylimidazo[1,5-a]pyridin-3-yl)propan-2-yl)-1-((2-methylpyridin-4-yl)methyl)piperazine-2-carboxamide]	0.06 nM
Cc1cccc2c(C(C)(C)NC(=O)[C@@H]3CNCCN3C)n[nH]c12 [SC-094, (S)-1-methyl-N-(2-(7-methyl-1H-indazol-3-yl)propan-2-yl)piperazine-2-carboxamide]	0.21 nM
Cc1cccc2c(C(C)(C)NC(=O)[C@@H]3CNCCN3CC3CCOCC3)n[nH]c12 [SC-096, (S)-N-(2-(7-methyl-1H-indazol-3-yl)propan-2-yl)-1-((tetrahydro-2H-pyran-4-yl)methyl)piperazine-2-carboxamide]	0.46 nM
COCCN1CCNC[C@H]1C(=O)NC(C)(C)c1nn(C)c2ccccc12 [SC-101, (S)-1-(2-methoxyethyl)-N-(2-(1-methyl-1H-indazol-3-yl)propan-2-yl)piperazine-2-carboxamide]	5.9 nM
Cn1nc(C(C)(C)NC(=O)[C@@H]2CNCCN2CC(F)(F)F)c2ccccc21 [SC-102, (S)-N-(2-(1-methyl-1H-indazol-3-yl)propan-2-yl)-1-(2,2,2-trifluoroethyl)piperazine-2-carboxamide]	0.84 nM
CN1CCN[C@H](C(=O)NC(C)(C)c2ncc3c(Cl)cccn23)C1 [SC-105, (S)-N-(2-(8-chloroimidazo[1,5-a]pyridin-3-yl)propan-2-yl)-4-methylpiperazine-2-carboxamide]	31 nM
CC(C)(NC(=O)[C@@H]1CNCCN1)c1ncc2c(Cl)cccn12 [SC-108, (S)-N-(2-(8-chloroimidazo[1,5-a]pyridin-3-yl)propan-2-yl)piperazine-2-carboxamide]	19 nM
CN1CCNC[C@@H]1C(=O)NC(C)(C)c1ncc2c(Cl)cccn12 [SC-109, (R)-N-(2-(8-chloroimidazo[1,5-a]pyridin-3-yl)propan-2-yl)-1-methylpiperazine-2-carboxamide]	1600 nM
CN1CCN[C@H](C(=O)NC(C)(C)c2ncc3c(C(F)(F)F)cccn23)C1 [SC-112, (S)-4-methyl-N-(2-(8-(trifluoromethyl)imidazo[1,5-a]pyridin-3-yl)propan-2-yl)piperazine-2-carboxamide]	490 nM

Second part, the compound after the results:

EC50	SMILES
> 1000 nM	Cc1cccn2c(C(C)(C)NC(=O)[C@@H]3CN(C(=O)C4CC4)CCN3)ncc12 [SC-077, (S)-4-(cyclopropanecarbonyl)-N-(2-(8-methylimidazo[1,5-a]pyridin-3-yl)propan-2-yl)piperazine-2-carboxamide]
6500 nM	Cc1cccn2c(C(C)(C)NC(=O)[C@@H]3CN(C(=O)C4CCOCC4)CCN3)ncc12 [SC-078, (S)-N-(2-(8-methylimidazo[1,5-a]pyridin-3-yl)propan-2-yl)-4-(tetrahydro-2H-pyran-4-carbonyl)piperazine-2-carboxamide]
15000 nM	Cc1cccn2c(C(C)(C)NC(=O)[C@@H]3CN(C(=O)CC4CCOCC4)CCN3)ncc12 [SC-079, (S)-N-(2-(8-methylimidazo[1,5-a]pyridin-3-yl)propan-2-yl)-4-(2-(tetrahydro-2H-pyran-4-yl)acetyl)piperazine-2-carboxamide]
> 10000 nM	Cc1cccn2c(C(C)(C)NC(=O)[C@@H]3CN(C(=O)C4CC(F)(F)C4)CCN3)ncc12 [SC-080, (S)-4-(3,3-difluorocyclobutane-1-carbonyl)-N-(2-(8-methylimidazo[1,5-a]pyridin-3-yl)propan-2-yl)piperazine-2-carboxamide]
> 10000 nM	Cc1cccn2c(C(C)(C)NC(=O)[C@@H]3CN(C(=O)c4cnn(C(C)C)c4)CCN3)ncc12 [SC-081, (S)-4-(1-isopropyl-1H-pyrazole-4-carbonyl)-N-(2-(8-methylimidazo[1,5-a]pyridin-3-yl)propan-2-yl)piperazine-2-carboxamide]
5400 nM	Cc1cccn2c(C(C)(C)NC(=O)[C@@H]3CN(C(=O)c4ccnn4C)CCN3)ncc12 [SC-082, (S)-4-(1-methyl-1H-pyrazole-5-carbonyl)-N-(2-(8-methylimidazo[1,5-a]pyridin-3-yl)propan-2-yl)piperazine-2-carboxamide]
6700 nM	Cc1cccn2c(C(C)(C)NC(=O)[C@@H]3CN(C(=O)c4cnn(C)c4)CCN3)ncc12 [SC-083, (S)-4-(1-methyl-1H-pyrazole-4-carbonyl)-N-(2-(8-methylimidazo[1,5-a]pyridin-3-yl)propan-2-yl)piperazine-2-carboxamide]
0.27 nM	Cc1cccn2c(C(C)(C)NC(=O)[C@@H]3CNCCN3CC3CCC(F)(F)CC3)ncc12 [SC-087, (S)-1-((4,4-difluorocyclohexyl)methyl)-N-(2-(8-methylimidazo[1,5-a]pyridin-3-yl)propan-2-yl)piperazine-2-carboxamide]
1.1 nM	COCCN1CCNC[C@H]1C(=O)NC(C)(C)c1ncc2c(C)cccn12 [SC-092, (S)-1-(2-methoxyethyl)-N-(2-(8-methylimidazo[1,5-a]pyridin-3-yl)propan-2-yl)piperazine-2-carboxamide]
2.9 nM	Cc1cccc2c(C(C)(C)NC(=O)[C@@H]3CN(C)CCN3)n[nH]c12 [SC-095, (S)-4-methyl-N-(2-(7-methyl-1H-indazol-3-yl)propan-2-yl)piperazine-2-carboxamide]
1.2 nM	COCCN1CCNC[C@H]1C(=O)NC(C)(C)c1n[nH]c2c(C)cccc12 [SC-097, (S)-1-(2-methoxyethyl)-N-(2-(7-methyl-1H-indazol-3-yl)propan-2-yl)piperazine-2-carboxamide]
0.07 nM	Cc1cccc2c(C(C)(C)NC(=O)[C@@H]3CNCCN3CC(F)(F)F)n[nH]c12 [SC-098, (S)-N-(2-(7-methyl-1H-indazol-3-yl)propan-2-yl)-1-(2,2,2-trifluoroethyl)piperazine-2-carboxamide]
21 nM	CN1CCN[C@H](C(=O)NC(C)(C)c2nn(C)c3ccccc23)C1 [SC-099, (S)-4-methyl-N-(2-(1-methyl-1H-indazol-3-yl)propan-2-yl)piperazine-2-carboxamide]
0.91 nM	CN1CCNC[C@H]1C(=O)NC(C)(C)c1nn(C)c2ccccc12 [SC-100, (S)-1-methyl-N-(2-(1-methyl-1H-indazol-3-yl)propan-2-yl)piperazine-2-carboxamide]
0.22 nM	Cn1nc(C(C)(C)NC(=O)[C@@H]2CNCCN2CC2CCOCC2)c2ccccc21 [SC-103, (S)-N-(2-(1-methyl-1H-indazol-3-yl)propan-2-yl)-1-((tetrahydro-2H-pyran-4-yl)methyl)piperazine-2-carboxamide]
0.9 nM	CN1CCNC[C@H]1C(=O)NC(C)(C)c1ncc2c(Cl)cccn12 [SC-104, (S)-N-(2-(8-chloroimidazo[1,5-a]pyridin-3-yl)propan-2-yl)-1-methylpiperazine-2-carboxamide]
1.5 nM	Cn1cc(CN2CCNC[C@H]2C(=O)NC(C)(C)c2ncc3c(Cl)cccn23)cn1 [SC-106, (S)-N-(2-(8-chloroimidazo[1,5-a]pyridin-3-yl)propan-2-yl)-1-((1-methyl-1H-pyrazol-4-yl)methyl)piperazine-2-carboxamide]
0.76 nM	CC(C)(NC(=O)[C@@H]1CNCCN1CC1CC(F)(F)C1)c1ncc2c(Cl)cccn12 [SC-107, (S)-N-(2-(8-chloroimidazo[1,5-a]pyridin-3-yl)propan-2-yl)-1-((3,3-difluorocyclobutyl)methyl)piperazine-2-carboxamide]
36 nM	CN1CCNC[C@H]1C(=O)NC(C)(C)c1ncc2c(C(F)(F)F)cccn12 [SC-110, (S)-1-methyl-N-(2-(8-(trifluoromethyl)imidazo[1,5-a]pyridin-3-yl)propan-2-yl)piperazine-2-carboxamide]
94 nM	Cn1cc(CN2CCNC[C@H]2C(=O)NC(C)(C)c2ncc3c(C(F)(F)F)cccn23)cn1 [SC-111, (S)-1-((1-methyl-1H-pyrazol-4-yl)methyl)-N-(2-(8-(trifluoromethyl)imidazo[1,5-a]pyridin-3-yl)propan-2-yl)piperazine-2-carboxamide]
